Experiments:
menses induction = test: Cynomolgus monkey menses induction assay; assay type: in vivo; conditions: 5 mg/kg po
Description: C. Cynomolgus Monkey […] Induction 1. Experimental Design The effects of administered compound(s) in either a single dose or a dose-response paradigm versus an appropriate control (vehicle alone) are determined. When a compound is tested at a single dose, a group of four animals will be used for the dose. In the dose response study, each experiment will involve up to 5 groups of animals (a control group and 4 groups of animals treated with varying doses of the compound). Experimental groups will contain 3-4 animals/group, since this sample size is commonly used in the literature and has been found appropriate based on our own experience. The animals are treated with test compounds once or twice daily for 4 days in the mid-luteal phase of the menstrual cycle to assess the efficacy of the compounds on the reproductive parameters menstruation. 2. Procedures Initially, animals are characterized in terms of their reproductive cyclicity by observing time of menstruation. Only those animals with two consecutive normal cycles are used to evaluate test compounds. […] will be determined by daily gross examination for vaginal bleeding. In each experiment, animals will be treated once or twice daily IV, IM, SC or PO with the test compound. Appropriate vehicles will be determined for each route of administration and will be specified through protocol amendments. […]

[1] = tested on: rat uterine decidualization; test: Rat decidualization assay; assay type: in vivo; conditions: po, read-out: ED50 in the rat decidual assay
Description: B. Progestational and Antiprogestational Activity in Mature Ovariectomized Rats (Rat Decidualization Assay)
This assay is used to evaluate the effect of progestins and antiprogestins on rat uterine decidualization and compare the relative potencies of various test compounds.
Test compounds are dissolved in 100% ethanol and mixed with corn oil (vehicle). Stock solutions of the test compounds in oil (Mazola™) are then prepared by heating (˜80° C.) the mixture to evaporate ethanol. Test compounds are subsequently diluted with 100% corn oil or 10% ethanol in corn oil prior to the treatment of animals. No difference in decidual response is found when these two vehicles are compared. […]
Approximately 24 hr after the third injection, decidualization is induced in one of the uterine horns of anesthetized rats by scratching the antimesometrial luminal epithelium with a blunt 21 G needle. […] Approximately 24 hr following the final treatment, rats are sacrificed by […] and bodyweight measured. […]
In agonist mode, the increase in weight of the decidualized uterine horn is calculated by D-horn/C-horn and logarithmic transformation is used to maximize normality and homogeneity of variance. […] EC50 is calculated from the transformed value. […] IC50 is calculated from the retransformed value. […]

Cn1c(C#N)ccc1-c1cc(F)c2c(c1)C(C)(C)C(=O)N2 [5-(7-fluoro-3,3-dimethyl-2-oxo-2,3-dihydro-1H-indol-5-yl)-1-methyl-1H-pyrrole-2-carbonitrile]
induction of early onset of menses (menses induction): 4 out of 5
ED50 [1]: 0.1 mg/kg
